# Data: patent US20170239212A1, “[…] AND USE THEREOF AS ANTIVIRAL AGENTS” (priority 2014, published 2017)
# Tests used:
# PKC delta = experiment: Phosphorylation of PKC delta at Y311 in LNCaP cells (western blot); assay type: cell-based, human; details: 2, 5 or 8 hrs treatment
# Procedure: (§1) FIGS. 14A-14C show the induction of cFos and phosphorylation of PKC6 at Y311 in LNCaP cells. […] The proteins from the lysates were separated by 10% SDS-PAGE, electroblotted to nitrocellulose membranes and probed with anti-cFos primary and anti-rabbit secondary antibodies, followed by ECL visualization. Data are representative of four independent experiments. […] The cFos signal was normalized to the 3-actin signal to correct for loading and the response induced by 100 nM PMA at 2 hrs was taken as 100%. Data represent the means±SEM of four independent experiments. […] Data represent the means±SEM of three independent experiments.
# (§2) LNCaP cells treated for 48 hours with the different drugs or with DMSO as control were washed and re-suspended in phosphate buffered saline. Yo-Pro-1 (Invitrogen, Carlsbad, Calif.) was added to a final concentration of 1 μM and the cells were incubated for 20 min at 4° C. in the dark. 7-Aminoactinomycin D (7-AAD) (Invitrogen, Carlsbad, Calif.) was then added at a 5 μg/mL final concentration 10 minutes before analysis by flow cytometry using the FACSCalibur system (Becton Dickinson, Mountain View, Calif.). Data were analyzed with FlowJo 7 (Tree Star Inc., Ashland, Oreg.). The Yo-Pro-1 positive cells were considered apoptotic and were expressed as % of total cells. […]
# [1] = system: K-562 human myelocytic leukemia cell line; experiment: Proliferation of K-562 cells; assay type: cell-based; details: maximally effective concentration, 72 hours, vs DMSO control
# Procedure: K562 cells were counted after 3 day treatment with different concentrations of PMA (0.1, 1, 10, 100, 1000 nM), bryostatin 1 (0.1, 1, 10, 100, 1000 nM), the bryologues MERLE 21, 22, or 23 (1, 10, 100, 1000, 5000 nM) or DMSO as control. The number of cells is presented as % of the DMSO-treated control. Data represent the means±SEM of three independent experiments.
# K-562 cells, from the Biological Testing Branch, National Cancer Institute, NIH (Frederick, Md.), were grown under usual conditions in RPMI-1640, supplemented with 10% fetal bovine serum. 72 hours after treatment with different drugs or DMSO the cell number was determined using a Beckman particle counter (Beckman Coulter Inc., Fullerton, Calif.).
# U937 cells = experiment: Attachment of U937 cells; assay type: cell-based, human; details: 72 hours; for Block of PMA-induced attachment of U937 cells: 10 nM PMA with different concentrations of compound; for Attachment of U937 cells (attached cells as percent of total): compound alone
# Procedure: U937 cells (Sundstrom, C.; Nilsson, K.: Establishment and characterization of a human histiocytic lymphoma cell line (U-937). Int. J. Cancer 1976, 17: 565-577), purchased from ATCC (Manassas, Va.) and cultured in RPMI-1640 medium supplemented with 10% FBS (ATCC, Manassas, Va.), were plated in 35 mm dishes at a density of 2×10^5 living cells/ml and treated with different concentrations of the drugs or DMSO. After 72 hours, the number of cells in the supernatant (non-attached cells) and the number of attached cells (after trypsinization) were counted using a Beckman particle counter (Beckman Coulter Inc., Fullerton, Calif.). The number of attached cells is expressed as percent of total cells (FIGS. 8-10).
# (§3) U937 cells were treated with PMA (0.1-100 nM), bryostatin 1 (1-1000 nM), the indicated compound (1-1000 nM), 10 nM PMA with different concentrations of bryostatin 1 (1-1000 nM) or 10 nM PMA with different concentrations of indicated compound (1-1000 nM) for 72 hours. The number of attached cells and total cells were counted and the attached cells were graphed as percent of total cells. The bars and error bars represent the average and the standard error of the mean of five independent experiment (FIGS. 8-10).
# (§4) U937 cells (Sundstrom and Nilsson, 1976), purchased from ATCC (Manassas, Va.) and cultured in RPMI-1640 medium supplemented with 10% FBS (ATCC, Manassas, Va.), were plated in 35 mm dishes at a density of 1×10^5 living cells/ml and treated with different concentrations of the drugs or DMSO. After 72 hours, the number of cells in the supernatant (non-attached cells) and the number of attached cells (after trypsinization) were counted using a particle counter. The number of attached cells is expressed as percent of total cells.
# U937 cells were treated with PMA (0.01-100 nM), bryostatin 1 (0.1-1000 nM), analogue 12 (MERLE 28) (0.1-1000 nM), 10 nM PMA with different concentrations of bryostatin 1 (0.1-1000 nM) or 10 nM PMA with different concentrations of analogue 12 (0.1-1000 nM). The number of attached cells and total cells were counted and the attached cells were graphed as percent of total cells. The bars and error bars represent the average and the standard error of the mean of at least three independent experiments.
# as §4
# as §3, with “at least three” for “five”, “experiments.” for “experiment (FIGS. 8-10).”
# cFos = experiment: Induction of cFos in LNCaP cells (western blot); assay type: cell-based, human; details: 2, 5 or 8 hrs treatment
# Procedure: as §1, §2
# [2] = system: HIV long terminal repeat (LTR) promoter; experiment: HOS LTR stimulation assay (luciferase reporter); assay type: cell-based
# Procedure: In the assay, non T cell derived human osteosarcoma (HOS) cells are transfected with a luciferase reporter under control of an HIV long terminal repeat (LTR) promoter. Compounds that stimulate the HIV LTR promoter will produce luciferase in a dose dependent manner.
# (§5) Specifically, EC50 and CC50 values were determined in parallel using 10 concentrations of compound from 3 fold serial dilutions starting a 5 uM as the highest concentration. Cells and media were added to compounds with a final concentration of DMSO of 1% and incubated at 37° C., 5% CO2 for 24, 48 and 72 hours. EC50 was measured by induced luciferase activity detected by the use of the Steady-Glo® Luciferase reagent (PROMEGA) with an EnVision (Perkin-Elmer) plate reader. CC50 was determined by the dose dependent knock down of cellular ATP detected by the use of CellTiter-Glo® Luminescent Cell Viability reagent (PROMEGA) with an EnVision (Perkin-Elmer) plate reader.
# The error bars represent the average and the standard error of the mean of at least three independent experiments.
# [3] = system: human osteosarcoma (HOS) cells; experiment: HOS cell viability (CellTiter-Glo, cellular ATP); assay type: cell-based; parameters: unit not given here; details: knock down of cellular ATP
# Procedure: as §5
Compound,Phosphorylation of PKC delta at Y311 in LNCaP cells (PKC delta),Maximal inhibition of K-562 cell growth [1] [%],Block of PMA-induced attachment of U937 cells (U937 cells),Block of PMA-induced attachment of U937 cells (U937 cells; listed as bryostatin 1),Attachment of U937 cells (attached cells as percent of total) (U937 cells),Attachment of U937 cells (attached cells as percent of total) (U937 cells; listed as bryostatin 1),Time course of cFos induction in LNCaP cells (cFos),"Max signal (% of control) ([2]; HOS cells, LTR-luciferase signal)","Conc (uM) at Max ([2]; HOS cells, concentration at maximal LTR-luciferase signal) [µM]","EC50 ([2]; Human immunodeficiency virus 1, HOS) [nM]",CCEC50 [3]
CCC/C=C/C=C/C(=O)O[C@H]1/C(=C/C(=O)OC)C[C@H]2C[C@H]([C@@H](C)O)OC(=O)C[C@H](O)C[C@@H]3C[C@H](OC(C)=O)C(C)(C)[C@](O)(C[C@@H]4C/C(=C/C(=O)OC)C[C@H](/C=C/C(C)(C)[C@]1(O)O2)O4)O3 [Bryostatin 1],only very weak phosphorylation,31.8±9.2,blocks the effect of the phorbol ester,blocks the effect of the phorbol ester in a dose-dependent manner,has much less effect on either response,much diminished effect,largely lost by 5 hrs,157 % of control,2.51,2,>5
"CCCCCCCCCCCCCC(=O)O[C@@H]1[C@@H](C)[C@@]2(O)[C@@H](C=C(CO)C[C@]3(O)C(=O)C(C)=C[C@@H]23)[C@@H]2C(C)(C)[C@]12OC(C)=O [PMA, phorbol 12-myristate 13-acetate]",rapid phosphorylation,–,–,–,induces attachment,–,"persisted for 5 hrs, with weak induction still evident at 8 hrs",–,–,–,–
